Reference: patent US20100021398A1, “COMPOSITIONS AND METHODS FOR LIGHTENING SKIN AND PROTECTING SKIN FROM ULTRAVIOLET RADIATION WITH GLUTATHIONE” (priority 2008, published 2010)

What was measured:
[1] = unmodified glutathione, cited from earlier work
[2] = system: Mitochondrial SOD 2; assay: up-regulation of anti-oxidant enzyme SOD by glutathione; type: cell-based; conditions: glutathione up-regulating anti-oxidant enzymes

N[C@@H](CCC(=O)N[C@@H](CS)C(=O)NCC(=O)O)C(=O)O [glutathione]
half-life in the blood stream ([1]; blood stream): about a minute and a half
half-life in the blood ([1]; blood): around 120 seconds
SOD increase [2]: 182%
